Reference: patent US7704995B2 (Exelixis, Inc., priority 2003, dated 2010)

Each molecule was assayed against T1, Chk1 (Homo sapiens, UniProt O14757) (assay: Chk1 kinase assay: incorporation of γ-33P ATP into immobilized myelin basic protein). Details: Table 11, Chk1 only; class symbols A-D; read-out: Chk1 IC50.
T1 construct: purchased Upstate Biotechnology
T1 sequence (O14757 1-476): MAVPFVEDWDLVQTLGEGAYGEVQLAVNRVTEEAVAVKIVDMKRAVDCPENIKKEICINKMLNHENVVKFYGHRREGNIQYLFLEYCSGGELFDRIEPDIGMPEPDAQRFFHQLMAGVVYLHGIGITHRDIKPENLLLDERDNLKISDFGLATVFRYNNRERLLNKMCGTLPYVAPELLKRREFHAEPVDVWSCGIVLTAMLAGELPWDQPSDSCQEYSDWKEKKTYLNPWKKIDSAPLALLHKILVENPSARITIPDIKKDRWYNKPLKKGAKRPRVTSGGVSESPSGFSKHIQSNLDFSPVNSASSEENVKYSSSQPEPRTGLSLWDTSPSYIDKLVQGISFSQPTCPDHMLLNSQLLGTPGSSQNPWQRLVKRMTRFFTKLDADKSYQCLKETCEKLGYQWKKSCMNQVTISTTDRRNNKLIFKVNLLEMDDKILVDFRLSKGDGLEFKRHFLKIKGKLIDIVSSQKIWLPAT
Assay type: biochemical
How it was run: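 Chk1 (10 nM) or Chk2 (20 nM) phosphorylated plate-immobilized myelin basic protein for 1 h at room temperature in Hepes pH 7.6 buffer with MgCl2, DTT, 1% DMSO, γ-33P ATP plus 10 μM (Chk1) or 30 μM (Chk2) unlabeled ATP. Bound radioactivity counted by scintillation; IC50 determined, Ki derivable from IC50.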

| IC50 | Structure (SMILES) |
| --- | --- |
| < 50 nM | NCc1cccc(-c2cnc(N)c(-c3nc([C@H]4CCCNC4)n[nH]3)n2)c1 [Example 923, 5-[3-(aminomethyl)phenyl]-3-{3-[(3S)-piperidin-3-yl]-1H-1,2,4-triazol-5-yl}pyrazin-2-amine] |
| < 50 nM | Nc1ncc(-c2cccc(CNC(=O)c3ccco3)c2)nc1C(=O)N[C@H]1CCCNC1 [Example 934, 3-amino-6-(3-{[(furan-2-ylcarbonyl)amino]methyl}phenyl)-N-[(3S)-piperidin-3-yl]pyrazine-2-carboxamide] |
| < 50 nM | Nc1ncc(-c2cccc(CNC(=O)c3ccc4c(c3)CCO4)c2)nc1C(=O)N[C@H]1CCCNC1 [Example 936, 3-amino-6-(3-{[(2,3-dihydro-1-benzofuran-5-ylcarbonyl)amino]methyl}phenyl)-N-[(3S)-piperidin-3-yl]pyrazine-2-carboxamide] |
| ≥ 10000 nM | CC(C)(C)OC(=O)N1CC[C@H](NC(=O)c2nc(-c3cccc(S(=O)(=O)N[C@@H]4CCc5ccccc54)c3)cnc2N)C1 [Example 810, 1,1-dimethylethyl (3S)-3-({[3-amino-6-(3-{[(1R)-2,3-dihydro-1H-inden-1-ylamino]sulfonyl}phenyl)pyrazin-2-yl]carbonyl}amino)pyrrolidine-1-carboxylate] |
| < 50 nM | Nc1ncc(-c2cccc(C(=O)NC[C@H]3CCCN3)c2)nc1C(=O)N[C@H]1CCCNC1 [Example 927, 3-amino-N-[(3S)-piperidin-3-yl]-6-[3-({[(2R)-pyrrolidin-2-ylmethyl]amino}carbonyl)phenyl]pyrazine-2-carboxamide] |
| < 50 nM | Nc1ncc(-c2cccc(NC(=O)c3ccc(-c4cc(C(F)(F)F)ccc4Cl)o3)c2)nc1C(=O)N[C@H]1CCCNC1 [Example 899, 3-amino-6-{3-[({5-[2-chloro-5-(trifluoromethyl)phenyl]furan-2-yl}carbonyl)amino]phenyl}-N-[(3S)-piperidin-3-yl]pyrazine-2-carboxamide] |
| < 50 nM | Nc1ncc(-c2cccc(C(=O)NCc3ccc(Cl)cc3Cl)c2)nc1C(=O)N[C@H]1CCCNC1 [Example 832, 3-amino-6-[3-({[(2,4-dichlorophenyl)methyl]amino}carbonyl)phenyl]-N-[(3S)-piperidin-3-yl]pyrazine-2-carboxamide] |

Same assay, conditions: Table 11; Chk1 only; read-out: Chk1 IC50

| IC50 | Structure (SMILES) |
| --- | --- |
| 50 to 1000 nM | Nc1ncc(-c2cccc(CN[C@H]3CCc4ccccc43)c2)nc1-c1nnc(Cc2ccccc2)[nH]1 [Example 555, 5-(3-{[(1S)-2,3-dihydro-1H-inden-1-ylamino]methyl}phenyl)-3-[5-(phenylmethyl)-4H-1,2,4-triazol-3-yl]pyrazin-2-amine] |
| 50 to 1000 nM | Nc1ncc(-c2cccc(C3=N[C@@H]4c5ccccc5C[C@@H]4O3)c2)nc1C(=O)NC1CCCNCC1 (stereo partly drawn) [Example 783, 3-amino-N-azepan-4-yl-6-{3-[(3aR,8aS)-8,8a-dihydro-3aH-indeno[1,2-d][1,3]oxazol-2-yl]phenyl}pyrazine-2-carboxamide] |
| 1000 to 10000 nM | Nc1ncc(-c2cccc(CN[C@H]3CCc4ccccc43)c2)nc1C(=O)NCCCN1CCCC1 [Example 598, 3-amino-6-(3-{[(1S)-2,3-dihydro-1H-inden-1-ylamino]methyl}phenyl)-N-(3-pyrrolidin-1-ylpropyl)pyrazine-2-carboxamide] |
| ≥ 10000 nM | CC(C)(C)OC(=O)N1CC[C@H](NC(=O)c2nc(-c3cccc(C(=O)NCCc4ccccc4)c3)cnc2N)C1 [Example 712, 1,1-dimethylethyl (3S)-3-({[3-amino-6-(3-{[(2-phenylethyl)amino]carbonyl}phenyl)pyrazin-2-yl]carbonyl}amino)pyrrolidine-1-carboxylate] |
| 50 to 1000 nM | Nc1ncc(-c2cccc(CO)c2)nc1-c1nc(C2CCCNC2)n[nH]1 (stereo not drawn) [Example 625, {3-[5-amino-6-(3-piperidin-3-yl-1H-1,2,4-triazol-5-yl)pyrazin-2-yl]phenyl}methanol] |
| 50 to 1000 nM | CNC(=O)c1nc(-c2ccc(F)c(C(=O)N[C@H]3CCc4ccccc43)c2)cnc1N [Example 772, 3-amino-6-(3-{[(1S)-2,3-dihydro-1H-inden-1-ylamino]carbonyl}-4-fluorophenyl)-N-methylpyrazine-2-carboxamide] |
| 50 to 1000 nM | CNC(=O)c1nc(-c2cccc(CNC3CCc4cc(-c5ccc(C)cc5)ccc43)c2)cnc1N (stereo not drawn) [Example 510, 3-amino-N-methyl-6-[3-({[5-(4-methylphenyl)-2,3-dihydro-1H-inden-1-yl]amino}methyl)phenyl]pyrazine-2-carboxamide] |
| 1000 to 10000 nM | Nc1ncc(-c2cccc(CNC3CCc4ccccc43)c2)nc1C(=O)NC1CCCCC1 (stereo not drawn) [Example 533, 3-amino-N-cyclohexyl-6-{3-[(2,3-dihydro-1H-inden-1-ylamino)methyl]phenyl}pyrazine-2-carboxamide] |
| 50 to 1000 nM | Nc1ncc(-c2cccc(C(=O)N[C@H]3CCc4ccccc43)c2)nc1C(=O)N[C@@H]1CCNC1 [Example 645, 3-amino-6-(3-{[(1S)-2,3-dihydro-1H-inden-1-ylamino]carbonyl}phenyl)-N-[(3R)-pyrrolidin-3-yl]pyrazine-2-carboxamide] |
| < 50 nM | CNCCCNC(=O)c1nc(-c2cccc(CN[C@H]3CCc4ccccc43)c2)cnc1N [Example 597, 3-amino-6-(3-{[(1S)-2,3-dihydro-1H-inden-1-ylamino]methyl}phenyl)-N-[3-(methylamino)propyl]pyrazine-2-carboxamide] |

Same assay, conditions: read-out: Chk1 IC50

| IC50 | Structure (SMILES) |
| --- | --- |
| 50 to 1000 nM | CNC(=O)c1nc(-c2cccc(C(=O)N[C@@H]3CCN(Cc4cccc(OC)c4)C3)c2)cnc1NCc1cccc(OC)c1 [Example 361, N-methyl-3-({[3-(methyloxy)phenyl]methyl}amino)-6-(3-{[((3R)-1-{[3-(methyloxy)phenyl]methyl}pyrrolidin-3-yl)amino]carbonyl}phenyl)pyrazine-2-carboxamide] |
| 1000 to 10000 nM | CNC(=O)c1nc(-c2cccc(C(=O)NCC(C)(C)C)c2)cnc1N [Example 252, 3-amino-6-(3-{[(2,2-dimethylpropyl)amino]carbonyl}phenyl)-N-methylpyrazine-2-carboxamide] |
| 50 to 1000 nM | CNC(=O)c1nc(-c2cccc(C(=O)NCc3ccc(-c4cccnc4)cc3)c2)cnc1N [Example 414, 3-amino-N-methyl-6-[3-({[(4-pyridin-3-ylphenyl)methyl]amino}carbonyl)phenyl]pyrazine-2-carboxamide] |
| 50 to 1000 nM | CNC(=O)c1nc(-c2cccc(C(=O)NCc3ccc(F)c(Br)c3)c2)cnc1N [Example 257, 3-amino-6-[3-({[(3-bromo-4-fluorophenyl)methyl]amino}carbonyl)phenyl]-N-methylpyrazine-2-carboxamide] |
| 1000 to 10000 nM | CNC(=O)c1nc(-c2cccc(C(=O)N[C@H](C)c3ccc(OC)cc3)c2)cnc1N [Example 108, 3-amino-N-methyl-6-{3-[({(1R)-1-[4-(methyloxy)phenyl]ethyl}amino)carbonyl]phenyl}pyrazine-2-carboxamide] |
| 50 to 1000 nM | CNC(=O)c1nc(-c2ccc(F)c(C(=O)NCc3ccccc3)c2)cnc1N [Example 291, 3-amino-6-(4-fluoro-3-{[(phenylmethyl)amino]carbonyl}phenyl)-N-methylpyrazine-2-carboxamide] |
| ≥ 10000 nM | CNC(=O)c1nc(-c2noc(C(C)(C)C)n2)cnc1N [Example 74, 3-amino-6-[5-(1,1-dimethylethyl)-1,2,4-oxadiazol-3-yl]-N-methylpyrazine-2-carboxamide] |
